Entries after “also recorded” stand apart in the source; their conditions may differ.

For series [1], the system named is androgen-independent prostate cancer. As to the kind of experiment: Treatment of male patients with androgen-independent prostate cancer (Example 1). Format: in vivo, human. The settings on record: majority of patients treated. Here is the method: Three male patients were selected for treatment on the basis of established diagnosis with prostate cancer. All three patients had failed standard androgen withdrawal therapy. Average prostate-specific antigen (“PSA”) levels for each patient at the beginning of treatment was about 20-30 ng/ml. Hormone ablative therapy, in some cases aggressively administered as long as 36 months, had failed, manifested by a continued rise in PSA levels in each patient. […] Each patient continued to receive luteinizing hormone-releasing hormone (“LHRH”)-agonist therapy, despite tumor growth in its presence. This is considered standard therapy, as tumor growth is likely to be more aggressive if testosterone levels were allowed to return to normal in these patients.

The next series deals with MSKPC9 tumor xenografts. As to the kind of experiment: Growth of androgen independent MSKPC9 tumor xenografts. Format: in vivo, nude athymic BALB/c male mice. The settings on record: 40 mg/kg 5x/wk p.o., orchiectomized mice. Here is the method: Xenograft studies were performed as described in D. B. Agus et al., “Response of prostate cancer to anti-Her-2/neu antibody in androgen-dependent and -independent human xenograft models,” Cancer Res. 59(19):4761-4764 (1999). Orchiectomized seven- to eight-week-old nude athymic BALB/c male mice were obtained from the National Cancer Institute and maintained in pathogen-free conditions. Mice were inoculated subcutaneously (“s.c.”) with minced tumor tissue together with […] reconstituted basement membrane (available from BD Biosciences Discovery Labware; Bedford, Mass.) from the established androgen independent (“AI”) MSKPC9 xenograft cell lines; cell lines are described in M. Nagabhushan et al., “CWR22: the first human prostate cancer xenograft with strongly androgen-dependent and relapsed strains both in vivo and in soft agar,” Cancer Res. 56(13):3042-3046 (1996), and D. B. Agus et al., “Prostate cancer cell cycle regulators: response to androgen withdrawal and development of androgen independence,” J. Natl. Cancer Inst. 91(21):1869-76 (1999).
Tumors were measured twice weekly with vernier calipers, and tumor volumes were calculated by the formula (π/6)×(larger diameter)×(smaller diameter)^2, described in M. F. Press et al., “HER-2/neu gene amplification characterized by fluorescence in situ hybridization: poor prognosis in node-negative breast carcinomas,” J. Clin Oncol. […]

For series [2], the system named is androgen-independent prostate cancer (AIPC). Put plainly: Clinical study of raloxifene in androgen-independent prostate cancer: response and survival. It is filed as in vivo, human. The text has this: Between August 2001 and July 2002, twenty-one patients were enrolled into the study at the Prostate Cancer Center of Cedars-Sinai Medical Center in Los Angeles, Calif. Patients who were eligible for the study were men who had histologically confirmed adenocarcinoma of the prostate and confirmed disease progression after hormonal therapy. Patients were required to have progression of disease as evidenced by CT scan or rising PSA on two successive measurements after discontinuation of anti-androgen therapy. In addition, patients receiving androgen receptor-blocking agents as their last form of therapy had to have confirmed disease progression after drug withdrawal. Nonsurgically castrated patients continued to receive LHRH agonist while on study to maintain castrate levels of serum testosterone.
Both patients with measurable disease by either bone scan or CT scan, and evaluable disease evidenced by rising PSA were included in the study. Patients whose only evidence of disease progression was rising PSA had to have an increasing PSA on any two determinations drawn at two least weeks apart, with a greater than 20% increase from the baseline value. Other eligibility criteria included: Karnofsky performance status >70%, life expectancy >12 weeks (with at least four weeks since major surgery or radiation therapy), and at least 12 weeks for treatment with strontium-89, rhenium, or samarium-153. […] Patients with a history of uncontrolled or severe cardiovascular disease (e.g., inadequately uncontrolled hypertension, congestive heart failure, angina, or myocardial infarction within the previous year), a history of thromboembolism, a history of biliary colic or untreated cholethiasis were excluded. Patients with brain metastasis, clinical signs of brain involvement or leptomeningeal disease, dementia, psychoses, or other significant impairment of mental status were excluded. Patients with a history of another malignancy during the past five years (other than non-melanomatous skin cancer or in situ stage T1a bladder cancer), patients with active infections requiring antibiotics, or patients on concurrent commercial or investigational antineoplastic therapies were excluded. No concomitant use of prostata or saw palmetto was permitted.
Response to therapy was assessed after the first two months of therapy and then monthly thereafter. Toxicity was assessed monthly at each study visit. […] A partial response (“PR”) required a decrease by >50% of the sum of the products of the perpendicular diameters for all measurable lesions lasting at least one month, no appearance of new lesions, and a reduction in serum PSA by >50% on two consecutive occasions at least one month apart. For patients being evaluated by bone metastases, a PR required a reduction in serum PSA by >50% on two consecutive occasions at least one month apart an improvement in bone scan (reduction in intensity or size of one or more metastatic foci and no new foci of radionuclide uptake unless due to […] healing documented on plain radiograph, CT scan, or MRI scan). During this time there should have been no cancer-associated deterioration in weight, performance status, or symptoms. Progressive disease (“PD”) was defined by any of the following: (1) increase >25% in the sum of the products of the perpendicular diameters of bidimensionally measurable lesions in the sum of the transverse diameters of unidimensionally measurable lesions, (2) the appearance of new lesions, and (3) by the increase in serum PSA >50% over baseline as documented on two successive measurements >28 days apart. […] For PD to be scored by PSA criteria alone, a confirmatory PSA determination was required and obtained two weeks after the value representing a >50% increase. Patients who had improvement in one objective parameter while meeting the criteria for PD by another parameter were scored as having PD.
Treatment was administered with monthly lab draws and follow-up visits with the physician. […]

For series [3] the following is noted: EVISTA package insert; cited from earlier work.

For `O=C(c1ccc(OCCN2CCCCC2)cc1)c1c(-c2ccc(O)cc2)sc2cc(O)ccc12` [raloxifene], the “tumor stabilization (non-progression), leveling off of rising serum PSA” value in series [1] was “tumor stabilization occurred”. Also, in the series with MSKPC9 tumor xenografts, the “mean tumor volume vs control group (FIG. 1A)” value is “reduction in mean tumor volume; also recorded: tumors were smaller” and the “mean tumor weight vs control group (FIG. 1B)” value is on record as “reduction in mean tumor weight”. Further, in series [2] (60 mg oral daily), the “improvement in soft tissue or bone disease” value is given as “No improvement in soft tissue or bone disease was observed”, the “median time to disease progression” value is reported as 8.3 weeks, the “patients with progressive disease at the first evaluation time point” value is listed as “thirteen of the eighteen” and the “patients with stable disease at the first evaluation time point” value is “five of eighteen”. Besides, in series [2] (60 mg oral daily), the “time to disease progression, range” value is given as 2.9-24.71 weeks. In addition, in series [2] (60 mg oral daily, first evaluation time point), the “progression of soft tissue or osseous disease” value was “No progression of soft tissue or osseous disease was observed”. In series [2] (as of July, 2003, 19 of 21), this compound registered a patients alive of 90%. Moreover, the median survival in series [2] (at time of analysis (November, 2002)) came out at 10.5 months. The “patients discontinued due to progressive disease (rising PSA) at the second evaluation point” value in series [2] (of the five patients with stable disease) is on record as “four”. In addition, in series [3], the “tolerability in previous clinical studies” value is listed as “well tolerated”.
